Measured values published in patent EP0908457B1, “3-(1,2-benzisothiazol- and isoxazol-5-Y1)-2,4(1H,3H)-pyrimidinedione or thione and 3-(1,2-benzisothiazol- and isoxazol-5-y1)-4(3H)-pyrimidinone or thione herbicidal agents” (BASF AKTIENGESELLSCHAFT, priority 1997, dated 1999).

Tests used:
Cyperus iria = experiment: Preemergence weed control under flooded paddy conditions, CYPIR (Rice Flatsedge); format: in vivo; details: flooded paddy; for herbicidal effect rating, CYPIR: rated three to four weeks after treatment; for CYPIR: herbicidal effect rating 0-9, three to four weeks after treatment; on herbicidal effect rating, CYPIR: meaning of each grade not given here
[1] = test system: Oryza sativa, (L.) Tebonnet; experiment: Rice tolerance to post-transplant applications under flooded paddy conditions (Example 187), ORYSAT (Rice, Tebonnet); details: for herbicidal effect rating ORYSAT / herbicidal effect rating, ORYSAT (rice tolerance): rated three to four weeks after treatment; for ORYSAT: herbicidal effect rating 0-9, three to four weeks after treatment; on herbicidal effect rating ORYSAT: meaning of each grade not given here
Sagittaria pygmaea, L. = experiment: Preemergence weed control under flooded paddy conditions, SAGPY (Arrowhead (Pygmaea)); format: in vivo; details: flooded paddy; for herbicidal effect rating, SAGPY: rated three to four weeks after treatment; for SAGPY: herbicidal effect rating 0-9, three to four weeks after treatment; on herbicidal effect rating, SAGPY: meaning of each grade not given here
[2] = test system: Echinochloa oryzoides (Ard.) Fritsch.; experiment: Preemergence weed control under flooded paddy conditions, ECHORC (Watergrass (Calif.)); format: in vivo; details: flooded paddy; for herbicidal effect rating, ECHORC: rated three to four weeks after treatment; for ECHORC: herbicidal effect rating 0-9, three to four weeks after treatment; on herbicidal effect rating, ECHORC: meaning of each grade not given here
[3] = test system: Cyperus serotinus, Rottb.; experiment: Preemergence weed control under flooded paddy conditions, CYPSE (Flatsedge); format: in vivo; details: for herbicidal effect rating, CYPSE: rated three to four weeks after treatment; for CYPSE: herbicidal effect rating 0-9, three to four weeks after treatment; on herbicidal effect rating, CYPSE: meaning of each grade not given here
[4] = test system: Monochoria vaginalis, Presl.; experiment: Preemergence weed control under flooded paddy conditions, MOOVA (Monochoria); format: in vivo; details: flooded paddy; for herbicidal effect rating, MOOVA: rated three to four weeks after treatment; for MOOVA: herbicidal effect rating 0-9, three to four weeks after treatment; on herbicidal effect rating, MOOVA: meaning of each grade not given here
[5] = Rate 0.0320 kg/ha, preemergence
[6] = Rate 0.0620 kg/ha, preemergence
[7] = Rate 0.1250 kg/ha, preemergence
[8] = Rate 0.2500 kg/ha, preemergence
[9] = 0.0320 kg/ha, preemergence weeds
[10] = 0.0620 kg/ha, preemergence weeds
[11] = 0.1250 kg/ha, preemergence weeds
[12] = 0.2500 kg/ha, preemergence weeds
[13] = Rate 0.0320 kg/ha, preemergence weeds
[14] = Rate 0.0620 kg/ha, preemergence weeds
[15] = Rate 0.1250 kg/ha, preemergence weeds
[16] = Rate 0.2500 kg/ha, preemergence weeds

Cn1c(C(F)(F)F)cc(=O)n(-c2ccc3snc(C(C#N)=Cc4ccoc4)c3c2)c1=O [Example 593, 1,2-Benzisothiazole-3-acetonitrile, 5-[3,6-dihydro-3-methyl-2,6-dioxo-4-(trifluoromethyl)-1(2H)-pyrimidinyl]-alpha-(3-furylmethylene)-]
herbicidal effect rating, CYPIR (Cyperus iria; [5]): 3.0
herbicidal effect rating, CYPIR (Cyperus iria; [6]): 3.0
herbicidal effect rating, CYPIR (Cyperus iria; [7]): 4.0
herbicidal effect rating, CYPIR (Cyperus iria; [8]): 5.0
herbicidal effect rating ORYSAT ([1]; Rate 0.0320 kg/ha): 0.0
herbicidal effect rating ORYSAT ([1]; Rate 0.0620 kg/ha): 0.0
herbicidal effect rating ORYSAT ([1]; Rate 0.1250 kg/ha): 0.0
herbicidal effect rating ORYSAT ([1]; Rate 0.2500 kg/ha): 0.0
herbicidal effect rating, SAGPY (Sagittaria pygmaea, L.; [5]): 0.0
herbicidal effect rating, SAGPY (Sagittaria pygmaea, L.; [6]): 0.0
herbicidal effect rating, SAGPY (Sagittaria pygmaea, L.; [7]): 0.0
herbicidal effect rating, SAGPY (Sagittaria pygmaea, L.; [8]): 0.0
herbicidal effect rating, ECHORC [2, 5]: 0.0
herbicidal effect rating, ECHORC [2, 6]: 0.0
herbicidal effect rating, ECHORC [2, 7]: 0.0
herbicidal effect rating, ECHORC [2, 8]: 0.0
herbicidal effect rating, CYPSE [3, 7]: 0.0
herbicidal effect rating, CYPSE [3, 8]: 0.0
herbicidal effect rating, MOOVA [4, 6]: 7.0
herbicidal effect rating, MOOVA [4, 7]: 7.0
herbicidal effect rating, MOOVA [4, 8]: 7.0

CC#CCOC(=O)c1nsc2ccc(-n3c(=O)cc(C(F)(F)F)n(C)c3=O)cc12 [Example 384, 1,2-Benzisothiazole-3-carboxylic acid, 5-[3,6-dihydro-3-methyl-2,6-dioxo-4-(trifluoromethyl)-1(2H)-pyrimidinyl]-, 2-butynyl ester]
herbicidal effect rating, CYPIR (Cyperus iria; [5]): 4.0
herbicidal effect rating, CYPIR (Cyperus iria; [6]): 7.0
herbicidal effect rating, CYPIR (Cyperus iria; [7]): 8.0
herbicidal effect rating, CYPIR (Cyperus iria; [8]): 8.0
herbicidal effect rating ORYSAT ([1]; Rate 0.0320 kg/ha): 4.0
herbicidal effect rating ORYSAT ([1]; Rate 0.0620 kg/ha): 4.0
herbicidal effect rating ORYSAT ([1]; Rate 0.1250 kg/ha): 7.0
herbicidal effect rating ORYSAT ([1]; Rate 0.2500 kg/ha): 6.0
herbicidal effect rating, SAGPY (Sagittaria pygmaea, L.; [5]): 5.0
herbicidal effect rating, SAGPY (Sagittaria pygmaea, L.; [6]): 6.0
herbicidal effect rating, SAGPY (Sagittaria pygmaea, L.; [7]): 6.0
herbicidal effect rating, SAGPY (Sagittaria pygmaea, L.; [8]): 6.0
herbicidal effect rating, ECHORC [2, 5]: 2.0
herbicidal effect rating, ECHORC [2, 6]: 4.0
herbicidal effect rating, ECHORC [2, 7]: 4.0
herbicidal effect rating, ECHORC [2, 8]: 6.0
herbicidal effect rating, CYPSE [3, 5]: 7.0
herbicidal effect rating, CYPSE [3, 6]: 7.0
herbicidal effect rating, CYPSE [3, 7]: 7.0
herbicidal effect rating, CYPSE [3, 8]: 7.0
herbicidal effect rating, MOOVA [4, 5]: 9.0
herbicidal effect rating, MOOVA [4, 6]: 9.0
herbicidal effect rating, MOOVA [4, 7]: 9.0
herbicidal effect rating, MOOVA [4, 8]: 9.0

Cn1c(C(F)(F)F)cc(=O)n(-c2ccc3snc(C(=O)NS(=O)(=O)Cc4ccc(C(C)(C)C)cc4)c3c2)c1=O [Example 405, 1,2-Benzisothiazole-3-carboxamide, N-[(p-tert-butylbenzyl)sulfonyl]-5-[3,6-dihydro-3-methyl-2,6-dioxo-4-(trifluoromethyl)-1(2H)-pyrimidinyl]-]
CYPIR (Cyperus iria; [9]): 4.0
CYPIR (Cyperus iria; [10]): 4.0
CYPIR (Cyperus iria; [11]): 7.0
CYPIR (Cyperus iria; [12]): 8.0
ORYSAT ([1]; 0.0320 kg/ha): 0.0
ORYSAT ([1]; 0.0620 kg/ha): 0.0
ORYSAT ([1]; 0.1250 kg/ha): 2.0
ORYSAT ([1]; 0.2500 kg/ha): 2.0
SAGPY (Sagittaria pygmaea, L.; [9]): 0.0
SAGPY (Sagittaria pygmaea, L.; [10]): 0.0
SAGPY (Sagittaria pygmaea, L.; [11]): 5.0
SAGPY (Sagittaria pygmaea, L.; [12]): 6.0
ECHORC [2, 9]: 7.0
ECHORC [2, 10]: 7.0
ECHORC [2, 11]: 9.0
ECHORC [2, 12]: 9.0
CYPSE [3, 9]: 0.0
CYPSE [3, 10]: 0.0
CYPSE [3, 11]: 0.0
CYPSE [3, 12]: 0.0
MOOVA [4, 9]: 6.0
MOOVA [4, 10]: 6.0
MOOVA [4, 11]: 7.0
MOOVA [4, 12]: 7.0

C[C@@H](Br)[C@H](Br)c1nsc2ccc(-n3c(=O)cc(C(F)(F)F)n(C)c3=O)cc12 [Example 303, 2,4(1H,3H)-Pyrimidinedione, 3-[3-(1,2-dibromopropyl)-1,2-benzisothiazol-5-yl]-1-methyl-6-(trifluoromethyl)-, (1R,2R)-]
herbicidal effect rating, CYPIR (Cyperus iria; [13]): 8.0
herbicidal effect rating, CYPIR (Cyperus iria; [14]): 8.0
herbicidal effect rating, CYPIR (Cyperus iria; [15]): 8.5
herbicidal effect rating, CYPIR (Cyperus iria; [16]): 8.5
herbicidal effect rating ORYSAT ([1]; Rate 0.0320 kg/ha): 2.0
herbicidal effect rating ORYSAT ([1]; Rate 0.0620 kg/ha): 4.5
herbicidal effect rating ORYSAT ([1]; Rate 0.1250 kg/ha): 5.0
herbicidal effect rating ORYSAT ([1]; Rate 0.2500 kg/ha): 7.5
herbicidal effect rating, SAGPY (Sagittaria pygmaea, L.; [13]): 2.0
herbicidal effect rating, SAGPY (Sagittaria pygmaea, L.; [14]): 2.0
herbicidal effect rating, SAGPY (Sagittaria pygmaea, L.; [15]): 8.5
herbicidal effect rating, SAGPY (Sagittaria pygmaea, L.; [16]): 9.0
herbicidal effect rating, ECHORC [2, 13]: 2.5
herbicidal effect rating, ECHORC [2, 14]: 7.5
herbicidal effect rating, ECHORC [2, 15]: 9.0
herbicidal effect rating, ECHORC [2, 16]: 9.0
herbicidal effect rating, CYPSE [3, 13]: 0.0
herbicidal effect rating, CYPSE [3, 14]: 4.0
herbicidal effect rating, CYPSE [3, 15]: 5.0
herbicidal effect rating, CYPSE [3, 16]: 6.0
herbicidal effect rating, MOOVA [4, 13]: 7.0
herbicidal effect rating, MOOVA [4, 14]: 9.0
herbicidal effect rating, MOOVA [4, 15]: 9.0
herbicidal effect rating, MOOVA [4, 16]: 9.0

CSCc1nsc2ccc(-n3c(=O)cc(C(F)(F)F)n(C)c3=O)cc12 [Example 21, 1-Methyl-3-{3-{(methylthio)methyl]-1,2-benzisothiazol-5-yl}-6-(trifluoromethyl)-2,4(1H,3H)-pyrimidinedione]
herbicidal effect rating, CYPIR (Cyperus iria; 0.0313 kg/ha, preemergence): 0.0
herbicidal effect rating, CYPIR (Cyperus iria; 0.0625 kg/ha, preemergence): 0.0
herbicidal effect rating, CYPIR (Cyperus iria; 0.1250 kg/ha, preemergence): 0.5
herbicidal effect rating, CYPIR (Cyperus iria; 0.2500 kg/ha, preemergence): 1.0
herbicidal effect rating, ORYSAT (rice tolerance) ([1]; 0.0313 kg/ha): 1.7
herbicidal effect rating, ORYSAT (rice tolerance) ([1]; 0.0625 kg/ha): 2.0
herbicidal effect rating, ORYSAT (rice tolerance) ([1]; 0.1250 kg/ha): 2.3
herbicidal effect rating, ORYSAT (rice tolerance) ([1]; 0.2500 kg/ha): 4.3
herbicidal effect rating, SAGPY (Sagittaria pygmaea, L.; 0.0313 kg/ha, preemergence): 0.0
herbicidal effect rating, SAGPY (Sagittaria pygmaea, L.; 0.0625 kg/ha, preemergence): 0.0
herbicidal effect rating, SAGPY (Sagittaria pygmaea, L.; 0.1250 kg/ha, preemergence): 0.0
herbicidal effect rating, SAGPY (Sagittaria pygmaea, L.; 0.2500 kg/ha, preemergence): 0.0
herbicidal effect rating, ECHORC ([2]; 0.0313 kg/ha, preemergence): 0.0
herbicidal effect rating, ECHORC ([2]; 0.0625 kg/ha, preemergence): 0.7
herbicidal effect rating, ECHORC ([2]; 0.1250 kg/ha, preemergence): 2.7
herbicidal effect rating, ECHORC ([2]; 0.2500 kg/ha, preemergence): 4.7
herbicidal effect rating, CYPSE ([3]; 0.0313 kg/ha, preemergence): 0.0
herbicidal effect rating, CYPSE ([3]; 0.0625 kg/ha, preemergence): 0.0
herbicidal effect rating, CYPSE ([3]; 0.1250 kg/ha, preemergence): 0.0
herbicidal effect rating, CYPSE ([3]; 0.2500 kg/ha, preemergence): 0.0
herbicidal effect rating, MOOVA ([4]; 0.0313 kg/ha, preemergence): 4.0
herbicidal effect rating, MOOVA ([4]; 0.0625 kg/ha, preemergence): 6.0
herbicidal effect rating, MOOVA ([4]; 0.1250 kg/ha, preemergence): 7.5
herbicidal effect rating, MOOVA ([4]; 0.2500 kg/ha, preemergence): 9.0
